Laboratory results as given in ChEMBL document CHEMBL1137833, “Synthesis and biological evaluation of stilbene-based pure estrogen antagonists” (Bioorg Med Chem Lett, 2004).

What was measured:
Estrogen receptor [1] = molecular target: T1, Estrogen receptor (Homo sapiens, UniProt Q92731+P03372); settings: Cancer cell lines, at 5 µM
Description: Inhibition of ER-MDA-MB 231 breast cancer cell proliferation over 96 hr at 5 uM

Estrogen receptor [2] = molecular target: T1, Estrogen receptor; assay: Inhibition of 10e-9 M E2 stimulated MCF-7 breast cancer cell proliferation; type: functional, cell-based; settings: cancer cell lines
Estrogen receptor [3] = molecular target: T1, Estrogen receptor; assay: Inhibition of 10e-9 M E2 stimulated transcriptional activation in ER+MCF-7/2a breast cancer cells; type: functional, cell-based; settings: cancer cell lines
Estrogen receptor [4] = molecular target: T1, Estrogen receptor; assay: Inhibition of ER+ MCF-7 breast cancer cell proliferation over 200 hr; settings: cancer cell lines
Estrogen receptor [5] = molecular target: T1, Estrogen receptor; settings: Cancer cell lines, at 10 µM
Description: Inhibition of ER-MDA-MB 231 breast cancer cell proliferation over 96 hr at 10 uM

| SMILES | T/C (Estrogen receptor [1]) [%] | IC50 (Estrogen receptor [2]) [nM] | IC50 (Estrogen receptor [3]) [nM] | IC50 (Estrogen receptor [4]) [nM] | T/C (Estrogen receptor [5]) [%] |
| --- | --- | --- | --- | --- | --- |
| CC/C(=C(/CCCCCCN(C)CCCSCCCC(F)(F)C(F)(F)F)c1ccc(O)cc1)c1ccc(O)cc1 | -15 | 7 | 10 | 0.22 | -15 |
| C[C@]12CC[C@@H]3c4ccc(O)cc4C[C@@H](CCCCCCCCC[S+]([O-])CCCC(F)(F)C(F)(F)F)[C@H]3[C@@H]1CC[C@@H]2O (some centres not stated) | 93 |  |  |  | 95 |
| CCCCCSCCCCCCCCCC/C(=C(/CC)c1cccc(O)c1)c1ccc(O)cc1 |  | 590 | 200 |  |  |
| CCCCCS(=O)(=O)CCCCCCCCCC/C(=C(/CC)c1cccc(O)c1)c1ccc(O)cc1 | 90 | 110 | 50 | 6.1 | 32 |
| CC/C(=C(/CCCCCC(=O)N(C)CCCSCCCC(F)(F)C(F)(F)F)c1ccc(O)cc1)c1ccc(O)cc1 |  | 700 | 310 |  |  |
| CCCCCS(=O)(=O)CCCCCCCCCC/C(=C(/CC)c1ccc(O)cc1)c1cccc(O)c1 | 96 | 270 | 370 | 49 | -7 |
| CCCCCSCCCCCCCCCC/C(=C(/CC)c1ccc(O)cc1)c1ccc(O)cc1 |  | 1400 | 790 |  |  |
| CCCCCSCCCN(C)CCCCCC/C(=C(/CC)c1ccc(O)cc1)c1ccc(O)cc1 | 75 | 10 | 10 | 0.75 | -25 |
| CCCCCSCCCN(C)C(=O)CCCCC/C(=C(/CC)c1ccc(O)cc1)c1ccc(O)cc1 |  | 1900 | 600 |  |  |
| CCCCCS(=O)(=O)CCCCCCCCCC/C(=C(/CC)c1ccc(O)cc1)c1ccc(O)cc1 | 94 | 100 | 130 | 5.1 | -4 |
| CCCCCSCCCCCCCCCC/C(=C(/CC)c1ccc(O)cc1)c1cccc(O)c1 |  | 2100 | 1200 |  |  |
| CCCCCS(=O)(=O)CCCCCCCCCCn1c(-c2ccc(O)cc2)c(C)c2cc(O)ccc21 | 84 | 50 | 20 | 1.4 | -2 |
